Earlier results, collected in patent publication US4745233A, “Derivatives of 1,1,2,2-tetramethyl-1,2-bis-(2-fluoro-4-hydroxyphenyl)-ethane” (Asta-Werke Aktiengesellschaft, priority 1985, dated 1988).

Legend:
oestrogen receptor = target: T1, oestrogen receptor (Bos taurus, UniProt P49884); conditions: known compound, literature
T1 sequence (P49884 1-596): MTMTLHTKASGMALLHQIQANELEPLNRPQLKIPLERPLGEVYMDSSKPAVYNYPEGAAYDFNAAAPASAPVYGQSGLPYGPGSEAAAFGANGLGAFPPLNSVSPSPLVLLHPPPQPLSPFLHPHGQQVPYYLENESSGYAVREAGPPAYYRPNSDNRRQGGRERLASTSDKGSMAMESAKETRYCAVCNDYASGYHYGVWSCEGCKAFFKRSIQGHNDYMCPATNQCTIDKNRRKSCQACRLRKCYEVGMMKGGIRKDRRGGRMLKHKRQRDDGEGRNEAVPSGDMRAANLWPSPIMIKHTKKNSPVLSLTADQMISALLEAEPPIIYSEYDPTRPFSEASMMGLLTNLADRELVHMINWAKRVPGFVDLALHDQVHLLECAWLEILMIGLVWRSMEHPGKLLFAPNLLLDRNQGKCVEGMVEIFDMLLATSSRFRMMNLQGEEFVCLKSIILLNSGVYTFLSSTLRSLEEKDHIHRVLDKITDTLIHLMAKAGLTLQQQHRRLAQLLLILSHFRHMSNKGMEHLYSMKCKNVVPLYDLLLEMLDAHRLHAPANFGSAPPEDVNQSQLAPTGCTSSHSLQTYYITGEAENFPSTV

[1] = system: DMBA-induced mammary carcinomas; conditions: Sprague Dawley rats; known compound
[2] = system: oestrone- or oestradiol-stimulated uterus growth; conditions: juvenile mice; known compound

relative binding affinity (oestrogen receptor): 3.6
Structure (SMILES): CC(C)(c1ccc(O)cc1)C(C)(C)c1ccc(O)cc1 [1,1,2,2-tetramethyl-1,2-bis-(4-hydroxyphenyl)-ethane]
growth of DMBA-induced mammary carcinoma [1]: inhibits the growth | antioestrogen effect: inhibition of oestrone- or oestradiol-stimulated uterus growth [2]: strong effect as antioestrogen
